Measured values as given in patent publication US9828406B2, “Antitumor agent” (KINKI UNIVERSITY, priority 2011, dated 2017).

Columns and labels:
[1] = tested on: renal cancer cells (ACHN); experiment: Combination with paclitaxel, survival rate of tumor cells (WST-8); format: cell-based, human; settings: 29 nM paclitaxel alone
Description: (§1) For cell culture, RPMI1640 medium (manufactured by Gibco Co., Ltd.) and DMEM medium (manufactured by Gibco Co., Ltd.) were mixed in a ratio of 1:1 and supplied 7% FBS (fetal bovine serum, manufactured by Nichirei Biosciences Inc.) and antibiotic mixture (mixture of penicillin, streptomycin, amphotericin B Mix, 100-fold concentrated solution (Nakarai Co.). Trypsinized cells were diluted to 1×10^5 cells/ml and seeded at 400 μl/well in 48-well dishes. Immediately after seeding, the test compound (dissolved in DMSO) was added to a final concentration of 0.5%, cultured for 24 hours in a CO2 incubator under an atmosphere of 5% of CO2, at a temperature of 36° C. to 37° C. […]
(§2) To 400 μl of cells culture, 18 μl of Cell Count Reagent SF (manufactured by Nacalai Inc.) was added. After being cultured for 2 to 3 hours (in a case where activity is low, cultured for 19 hours) under an atmosphere of 5% of CO2, at a temperature of 36° C. to 37° C., the broth was stirred, and the amount of formazan produced in the broth was calculated from absorbance at a wavelength of 450 nm. Using a measured value at a wavelength of 600 nm as a control, OD450-OD600 was set to an activity value. […]
A survival rate of the tumor cells was calculated, in the same manner as in Example 4 except that 5 μM of the glycoside compound and 29 nM of paclitaxel were added to the medium immediately after seeding the tumor cells.

[2] = tested on: urinary bladder cancer cells (T24); experiment: Combination with doxorubicin, survival rate of tumor cells (WST-8); format: cell-based, human; settings: T24, 10 μM doxorubicin alone
Description: (§3) For cell culture, RPMI1640 medium (manufactured by Gibco Co., Ltd.) and DMEM medium (manufactured by Gibco Co., Ltd.) were mixed in a ratio of 1:1 and supplied 7% FBS (fetal bovine serum, manufactured by Nichirei Biosciences Inc.) and antibiotic mixture (mixture of penicillin, streptomycin, amphotericin B Mix, 100-fold concentrated solution (Nakarai Co.). Trypsinized cells were diluted to 1×10^5 cells/ml and seeded at 400 μl/well in 48-well dishes. Immediately after seeding, the test compound (dissolved in DMSO) was added to a final concentration of 0.5%, cultured for 24 hours in a CO2 incubator under an atmosphere of 5% of CO2, at a temperature of 36° C. to 37° C. After culturing, WST-8 assay was performed. An activity value of DMSO control was set to 100%, and the activities of each cell to which the test compound was added were investigated.
as §2

[3] = tested on: normal embryonic kidney-derived cells (HEK293F); experiment: WST-8 cell proliferation assay, normal embryonic kidney-derived cells; format: cell-based; settings: cultured for 24 hours, WST-8 assay, DMSO control = 100%
Description: as §3
(§4) To 400 μl of cells culture, 18 μl of Cell Count Reagent SF (manufactured by Nacalai Inc.) was added. After being cultured for 2 to 3 hours (in a case where activity is low, cultured for 19 hours) under an atmosphere of 5% of CO2, at a temperature of 36° C. to 37° C., the broth was stirred, and the amount of formazan produced in the broth was calculated from absorbance at a wavelength of 450 nm. Using a measured value at a wavelength of 600 nm as a control, OD450-OD600 was set to an activity value.

[4] = tested on: gastric cancer cells (MKN45); experiment: WST-8 cell proliferation assay, gastric cancer cells; format: cell-based, human; settings: MKN45, cultured for 24 hours, WST-8 assay, DMSO control = 100%
Description: as §3, §4

[5] = tested on: acute lymphoblastic leukemia T-cells (Molt-4); experiment: WST-8 cell proliferation assay, acute lymphoblastic leukemia T-cells; format: cell-based, human; settings: Molt-4, cultured for 24 hours, WST-8 assay, DMSO control = 100%
Description: as §3, §2

[6] = tested on: cervical cancer cells (HeLa); experiment: Combination with cisplatin, survival rate of tumor cells (WST-8); format: cell-based, human
Description: as §1, §2
The survival rate of the tumor cells was calculated, in the same manner as in Example 4 except that 15 μM of the glycoside compound and 333 μM of cisplatin were added to the medium immediately after seeding the tumor cells. […]

CC(=O)O[C@H]1C(=O)[C@@]2(C)[C@H]([C@H](OC(=O)c3ccccc3)[C@]3(O)C[C@H](OC(=O)[C@H](O)[C@@H](NC(=O)c4ccccc4)c4ccccc4)C(C)=C1C3(C)C)[C@]1(OC(C)=O)CO[C@@H]1C[C@@H]2O [paclitaxel]
survival rate of the tumor cells [1]: 63.8%

COc1cccc2c1C(=O)c1c(O)c3c(c(O)c1C2=O)C[C@@](O)(C(=O)CO)C[C@@H]3O[C@H]1C[C@H](N)[C@H](O)[C@H](C)O1 [doxorubicin]
survival rate of the tumor cells [2]: 57.3%

CCCCCCCC(=O)O[C@@H]1[C@H](OC[C@@H](O)[C@@H](O)[C@H](O)[C@H](O)[C@@H](O)CO)O[C@H](COC(=O)CCCCC)[C@@H](OC(=O)CCCCC)[C@@H]1OC(=O)CCCCC [Preparation Example 24, D-glycero-D-galactoheptitol-1-yl 3,4,6-tri-O-hexanoyl-2-O-octanoyl-β-D-mannopyranoside]
IC50 [3]: 21.8 µM | IC50 [4]: 16 µM | IC50 [5]: 8.1 µM

N.N.[Cl][Pt][Cl] [cisplatin]
Survival Rate after 19 Hours ([6]; 42 μM cisplatin alone, WST-8 incubated for 19 hours): 106.8% | Survival Rate after 2 Hours ([6]; 333 μM cisplatin alone, WST-8 incubated for 2 hours): 58.8%
